Measured values from US11207321B2, “Methods and medical uses” (Institute of Cancer Research: Royal Cancer Hospital (The), priority 2017, dated 2021).

Test system: palbociclib-resistant breast cancer cell lines (wild type and LTED)
Experiment: Proliferation assays with MPS1 inhibitors in panel of palbociclib-resistant breast cancer cell lines
Assay type: cell-based
Conditions: addition of CCT289346 to palbociclib
Protocol: Wt cells were stripped of E2 for 72 hrs prior to experiment. After 24 hrs cells were treated with escalating doses of MPS1 inhibitors±palbocliclib. Media was replaced after 3 days and cell viability was assessed after 6 days using the CellTitre-Glo® Luminescent Cell Viability Assay (Promega) according to manufacturer's instructions.

CCOc1cc(-c2nncn2C)ccc1Nc1ncc2cc(C)nc(NCC(C)(C)C)c2n1 [CCT289346, N2-(2-ethoxy-4-(4-methyl-4H-1,2,4-triazol-3-yl)phenyl)-6-methyl-N8-neopentylpyrido[3,4-d]pyrimidine-2,8-diamine]
effect of combination with palbociclib: synergistic/additive effect
